Measured values as given in EPA's ToxRefDB 2.

Legend:
rabbit [1] = conditions: Prenatal developmental toxicity study, new zealand white, Dermal, Topical, dose end: 18 GD
rat [2] = conditions: Prenatal developmental toxicity study, fischer, Oral, Gavage/Intubation, dose end: 15 GD
rat [3] = conditions: Subchronic oral toxicity in rodents, other, Feed, dose end: 13 week, group: systemic, systemic / clinical chemistry / urea nitrogen / urea
rabbit [4] = conditions: Prenatal developmental toxicity study, new zealand white, Oral, Capsule, dose end: 18 GD
rat [5] = conditions: Subchronic oral toxicity in rodents, Feed, dose end: 13 week, group: systemic
mouse = conditions: Subchronic oral toxicity in rodents, cd1, Feed, dose end: 13 week, group: systemic
dog = conditions: Chronic toxicity; beagle; Oral; Feed; dose end: 52 week; group: systemic; systemic / clinical chemistry / albumin / albumin + systemic / clinical chemistry / calcium / calcium + systemic / clinical chemistry / …
[6] = group: developmental, developmental / developmental malformation / bone / supernumerary + developmental / developmental malformation / bone / unossified + …
[7] = group: maternal, systemic / in life observation / body weight / body weight gain
[8] = group: developmental, developmental / developmental malformation / bone / ossification sites + developmental / developmental malformation / bone / supernumerary
[9] = group: maternal, systemic / in life observation / body weight / body weight
[10] = group: developmental, developmental / developmental malformation / bone / supernumerary + developmental / developmental malformation / gallbladder / [other] + …
[11] = group: maternal, reproductive / reproductive performance / aborted / aborted + reproductive / reproductive performance / postimplantation loss / …
[12] = group: maternal, systemic / in life observation / body weight / body weight + systemic / in life observation / body weight / body weight gain + systemic / in…
[13] = systemic / in life observation / body weight / body weight
[14] = systemic / in life observation / body weight / body weight + systemic / clinical chemistry / urea nitrogen / urea + systemic / urinalysis / …
[15] = systemic / in life observation / body weight / body weight + systemic / organ weight / liver / relative to body weight

## CCNc1nc(Cl)nc(NC(C)(C)C#N)n1 [Cyanazine]
Rabbit [1]; group: developmental, developmental / developmental malformation / bone / supernumerary + developmental / developmental malformation / bone / unossified
  LOAEL: 955 mg/kg/day
Rabbit [1]; [6]
  NEL: 286 mg/kg/day
  NOAEL: 573 mg/kg/day
Rabbit [1]; group: developmental, systemic / in life observation / body weight / fetal weight
  LEL: 573 mg/kg/day
Rabbit [1]; [7]
  LEL: 96 mg/kg/day
  LOAEL: 96 mg/kg/day
  NEL: < 96 mg/kg/day
  NOAEL: < 96 mg/kg/day
Rat [2]; [8]
  LEL: 5 mg/kg/day
  LOAEL: 5 mg/kg/day
  NEL: < 5 mg/kg/day
  NOAEL: < 5 mg/kg/day
Rat [2]; [9]
  LEL: 5 mg/kg/day
  LOAEL: 5 mg/kg/day
  NEL: < 5 mg/kg/day
  NOAEL: < 5 mg/kg/day
Rat [3]
  LEL: 0.075 mg/kg/day
  LOAEL: 0.075 mg/kg/day
  NEL: < 0.075 mg/kg/day
  NOAEL: < 0.075 mg/kg/day
Rabbit [4]; group: developmental, developmental / developmental malformation / bone / absent + developmental / developmental malformation / bone / supernumerary
  LOAEL: 2 mg/kg/day
Rabbit [4]; group: developmental, developmental / developmental malformation / bone / absent + developmental / developmental malformation / bone / supernumerary + …
  NOAEL: 1 mg/kg/day
Rabbit [4]; [10]
  LEL: 1 mg/kg/day
  NEL: < 1 mg/kg/day
Rabbit [4]; [11]
  LOAEL: 2 mg/kg/day
  NOAEL: 1 mg/kg/day
Rabbit [4]; [12]
  LEL: 1 mg/kg/day
  NEL: < 1 mg/kg/day
Rat [5]; [13]
  LOAEL: 0.005 mg/kg/day
  NOAEL: < 0.005 mg/kg/day
Rat [5]; [14]
  LEL: 0.005 mg/kg/day
  NEL: < 0.005 mg/kg/day
mouse; [13]
  LOAEL: 75 mg/kg/day
mouse; [15]
  LEL: 75 mg/kg/day
  NEL: 7.5 mg/kg/day
  NOAEL: 7.5 mg/kg/day
dog
  LEL: 3.02 mg/kg/day
  LOAEL: 3.02 mg/kg/day
  NEL: 0.72 mg/kg/day
  NOAEL: 0.72 mg/kg/day
